The record followed here is US7495027B2, “3-aryl-4-hydroxyfuranone compounds and the human and animal health use thereof” (Wyeth, priority 2003, dated 2009).

Data set [1] concerns the target E. coli UDP-N-acetylglucosamine enolpyruvoyl transferase, MurA (Escherichia coli, UniProt P0A749). Briefly: biochemical. Conditions: (E) E. coli enzyme. Summed up: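 Enzyme in 50 mM Tris/HCl pH 8.0 with 5 mM DTT and 20% glycerol was pre-incubated 10 min at 37° C with test compound in DMSO/water. Tris/BME and assay buffer then started the 1 hr, 37° C reaction, with a baseline 340 nm reading taken at start. Stop solution followed, and colour developed 30 minutes.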

E. coli UDP-N-acetylglucosamine enolpyruvoyl transferase, MurA, sequence (P0A749 whole entry): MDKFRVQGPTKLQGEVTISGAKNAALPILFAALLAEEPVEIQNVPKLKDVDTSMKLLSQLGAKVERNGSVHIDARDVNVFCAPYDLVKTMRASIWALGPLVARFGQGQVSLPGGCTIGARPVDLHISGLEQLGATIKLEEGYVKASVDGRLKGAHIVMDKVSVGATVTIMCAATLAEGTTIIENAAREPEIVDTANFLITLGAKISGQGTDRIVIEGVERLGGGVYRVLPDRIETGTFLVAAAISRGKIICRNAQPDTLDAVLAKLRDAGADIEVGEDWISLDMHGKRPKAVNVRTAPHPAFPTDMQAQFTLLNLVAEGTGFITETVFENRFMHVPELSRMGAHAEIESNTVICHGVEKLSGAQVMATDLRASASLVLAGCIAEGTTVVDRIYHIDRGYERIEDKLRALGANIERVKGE

The molecule `O=C1O/C(=C\c2ccc(-c3ccccc3)cc2)C(O)=C1c1cccc(C(F)(F)F)c1` [Example 10] registered a melting point of 240 to 241.5 °C. The IC50 in data set [1] was 2.45 µM.
In the case of `O=C1O/C(=C\C2CCCCC2)C(O)=C1c1ccc(Cl)cc1` [Example 15], the melting point was 200 to 205 °C. Besides, the IC50 in data set [1] is more than 82 µM.
Taken in the same sequence, the figures for `O=C1O/C(=C\c2ccc(Cl)cc2)C(O)=C1c1ccc2ccccc2c1` [Example 43] were 243 to 250 °C and 57.3 µM.
In turn, `O=C1O/C(=C\c2cccc3ccccc23)C(O)=C1c1cccc2ccccc12` [Example 47] came in with a melting point of 216 to 218 °C. The molecule further displayed an IC50 in data set [1] of more than 68.6 µM.
Regarding `O=C1O/C(=C\c2ccc3ccccc3c2)C(O)=C1c1ccc2ccccc2c1` [Example 52], the melting point fell in the range of 285 to 290 °C. The same molecule came in with an IC50 in data set [1] of more than 68.6 µM.
In the case of `O=C1O/C(=C\c2ccc(-c3ccccc3)cc2)C(O)=C1c1ccc(Cl)cc1` [Example 53], the melting point lay within 282 to 285 °C. The IC50 in data set [1] was more than 66.7 µM.
`O=C1O/C(=C\c2ccc3ccccc3c2)C(O)=C1c1ccc(Cl)cc1` [Example 54]: the melting point was 284 to 286 °C. The IC50 in data set [1] was more than 71.7 µM.
Taken in the same sequence, the figures for `O=C1O/C(=C\c2ccc3ccccc3c2)C(O)=C1c1cccc2ccccc12` [Example 56] were 235 to 237 °C and more than 68.6 µM.
For the molecule `O=C1O/C(=C\c2ccc(-c3ccccc3)cc2)C(O)=C1c1cc(Cl)cc(Cl)c1` [Example 67], the melting point lay within 279 to 280 °C. This molecule had an IC50 in data set [1] of 7.33 µM.
`O=C1O/C(=C\c2ccc(-c3ccccc3)cc2)C(O)=C1c1cccc(Cl)c1` [Example 69] yielded a melting point of 248 to 250 °C. The molecule also showed an IC50 in data set [1] of 21.3 µM.
Regarding `O=C1O/C(=C\C2CCCCC2)C(O)=C1c1ccc(-c2ccccc2)cc1` [Example 100], the melting point was in the range of 204 to 207 °C. In data set [1], this molecule returned an IC50 of more than 72.2 µM.
Taken in the same sequence, the figures for `O=C1O/C(=C\c2cccnc2)C(O)=C1c1ccc(-c2ccccc2)cc1` [Example 101] were 252 to 255 °C and 67.4 µM.
In the case of `Cc1ccc(/C=C2\OC(=O)C(c3ccc(-c4ccccc4)cc3)=C2O)s1` [Example 104], the melting point was in the range of 235 to 240 °C. The molecule also came in with an IC50 in data set [1] of more than 69.4 µM.

The IC50 is the concentration that gives 50% inhibition. A lower IC50 goes with greater potency in that assay. The term melting point denotes the temperature of the solid-liquid transition.
